One experiment concerns the target T1, Cyp11a1 (Mus musculus, UniProt Q9QZ82).
T1 construct: mononuclear cells (MNCs) were processed from the spleens of OT-1 mice; endogenous in cells
T1 sequence (Q9QZ82 37-526): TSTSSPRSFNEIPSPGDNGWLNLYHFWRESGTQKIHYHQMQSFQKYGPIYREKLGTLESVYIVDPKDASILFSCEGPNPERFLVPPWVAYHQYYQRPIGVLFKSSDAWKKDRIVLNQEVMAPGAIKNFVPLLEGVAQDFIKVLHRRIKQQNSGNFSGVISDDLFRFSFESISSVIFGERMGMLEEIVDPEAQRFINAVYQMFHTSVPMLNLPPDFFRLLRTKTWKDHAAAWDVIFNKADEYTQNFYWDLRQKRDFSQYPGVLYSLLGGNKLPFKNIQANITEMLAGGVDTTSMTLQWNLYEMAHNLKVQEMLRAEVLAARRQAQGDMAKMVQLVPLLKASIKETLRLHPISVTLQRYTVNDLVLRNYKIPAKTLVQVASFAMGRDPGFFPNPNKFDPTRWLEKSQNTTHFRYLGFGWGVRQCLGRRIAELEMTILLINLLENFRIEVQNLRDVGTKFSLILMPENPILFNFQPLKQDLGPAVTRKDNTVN
As to the kind of experiment: Pregnenolone ELISA in supernatants of differentiated CD8+ T cells (Cyp11a1 enzymatic activity). The experiment is classed as cell-based. Particulars: CD8+ T cells differentiated in IL-2+IL-4, AMG 500 μM; without AMG 424.8±35.5 pg/ml. On the technique in general: An ELISA detects its analyte on a solid surface through an enzyme-linked reagent.

The subject of experiment [1] is OVA-sensitized CD8-deficient mice. Put plainly: Secondary allergen challenge model with adoptive transfer of CD8+ T cells. The class given is in vivo, mouse. As for the experimental part: The experimental protocol for sensitization and challenge to OVA was as described previously (Oka, H. et al. Cell. Immunol. 206, 7-15 (2000); Sundrud, M. S, and Nolan, M. A. Curr. Opin. Immunol. 22, 286-292 (2010)), with some modification. CD8-deficient mice were sensitized with 20 μg of OVA (Calbiochem, La Jolla, Calif.) emulsified in 2.25 mg of alum (AlumImuject; Pierce, Rockford, Ill.) on days 0 and 14 by intraperitoneal injection. Mice were challenged with 0.2% OVA for 20 minutes on days 21, 22, and 23 using an ultrasonic nebulizer (model NE-U07; Omron Healthcare, Kyoto, J P). […] Two hours after transfer, mice were challenged (secondary) with 1% OVA for 20 minutes. Airway function was measured and samples were collected on day 38. Airway function was assessed as described previously (Oka, H. et al. Cell. Immunol. 206, 7-15 (2000); Sundrud, M. S, and Nolan, M. A. Curr. Opin. Immunol. 22, 286-292 (2010)) by measuring changes in airway resistance (RL) in response to increasing doses of inhaled methacholine (Sigma, St. Louis, Mo.). Data were presented as percentage change from the baseline RL values after saline inhalation. […] After measurement of AHR, lungs were lavaged via the tracheal tube with 1 ml of HBSS. The supernatants were collected and IL-4, IL-5, and IL-13 (eBioscience, San Diego, Calif.) levels were measured by ELISA as described previously. Total leukocyte numbers were counted and differentiated as described previously (Oka, H. et al. Cell. Immunol. 206, 7-15 (2000); Sundrud, M. S, and Nolan, M. A. Curr. Opin. Immunol. 22, 286-292 (2010)). Mouse lungs were isolated and fixed in 10% formalin, then embedded in paraffin and cut into 5-μm thick tissue sections. Sections were stained with periodic acid-Schiff (PAS) and mucus-containing cells were quantitated as previously described (Oka, H. et al. Cell. Immunol. 206, 7-15 (2000); Sundrud, M. S, and Nolan, M. A. Curr. Opin. Immunol. 22, 286-292 (2010)). For some experiments, lung tissue expression of Cyp11a1 was identified by immunohistochemistry staining using anti-human Cyp11a1 antibody.

Where [2] appears, read: recipients of AMG-treated vs untreated CD8+ T cells.
The mark [3] stands for this setting: recipients of CD8+ T cells pretreated with AMG vs untreated cells.

Data on one molecule can be found in patent publication US9534221B2, “Targeting the steroidogenic pathway for treating and/or preventing allergic diseases” (National Jewish Health, priority 2013, dated 2017).

Procedure for Cyp11a1: CD8^+ effector memory T cells were generated in vitro as previously described (Miyahara, N. et al. J. Immunol. 172, 2549-2558 (2004); Miyahara, N. et al. J. Immunol. 174, 4979-4984 (2005)). In brief, mononuclear cells (MNCs) were processed from the spleens of OT-1 mice followed by stimulation of 1 μg/ml [sequence] peptide (SEQ ID NO:1) was used to stimulate cells for 1.5 hours. Two days after culture, living cells were re-isolated using histopaque and cultured in complete RPMI 1640 medium that contained recombinant mouse IL-2 (20 ng/ml) (R&D, Minneapolis, Minn.) or IL-2+IL-4 (20 ng/ml) (Peprotech, Rocky Hill, N.J.). For some experiments, AMG was added into the medium together with IL-2 or IL-2+IL-4. Medium with cytokines was changed every day for a further 4 days. The cells were then re-stimulated with 1 μg/ml [sequence] (SEQ ID NO:1) in medium containing 2 μM monensin (Calbiochem, La Jolla, Calif.) for 4 hours.
CD8^+ T cells generated in the presence of IL-2, IL-2+IL-4, IL-2+AMG, or IL-2+IL-4+AMG were cultured in 6-well plates at 5×10^6/ml for 24 hours. Supernatants were collected. Pregnenolone levels were measured using the Pregnenolone ELISA kit (ALPCO Diagnostics, Salem, N.H.).
The enzymatic activity of Cyp11a1 was assessed using an ELISA assay for detection of pregnenolone levels in cell culture supernatants (Kim, C. J. et al. J. Clin. Endocrinol. Metab. 93, 696-702 (2008)).

`CCC1(c2ccc(N)cc2)CCC(=O)NC1=O` (stereo not drawn) [AMG, aminoglutethimide]: on Cyp11a1, the “Pregnenolone levels in cell supernatants” value worked out at 96.4 ± 35 pg/mL. Also, in experiment [1] (recipients of AMG-treated cells), the “Cyp11a1-positive cells in the lung” value was “few Cyp11a1-positive cells”. Besides, in experiment [1] (setting [2]), the “IL-4 level in BAL fluid” value is reported as “significantly lower”, the “IL-5 level in BAL fluid” value is given as “significantly lower” and the “IL-13 level in BAL fluid” value was “significantly lower”. Further, in experiment [1] (setting [3]), the “Lung inflammation (histology)” value is listed as “less inflammation” and the “Numbers of PAS+ mucus-containing goblet cells in lung” value is listed as “significantly decreased”. The “AHR (changes in airway resistance RL)” value in experiment [1] (transfer of 5×10^6 CD8+ T cells differentiated in IL-2 with AMG (500 μM)) is “failed to restore AHR or airway inflammation”. The “Airway inflammation (cell composition in BAL fluid)” value in experiment [1] (transfer of CD8+ T cells differentiated in IL-2 with AMG (500 μM)) was “failed to restore AHR or airway inflammation”.
